The compounds below were run against human Nav1.8 (Homo sapiens (Human), UniProt Q9Y5Y9) (assay: Nav1.8 Qube automated patch-clamp assay). Conditions: human Nav1.8 stably expressed in HEK 293 cells, whole-cell voltage clamp, room temperature; read-out: IC50 (nM) in the Nav 1.8 Qube Assay.
Type: cell-based
Method: Qube® Assay Experimental Procedure Compounds were tested on human Nav1.8 and Nav1.5 channels stably expressed in human embryo kidney (HEK) 293 cells. Sodium current measurements on Qube® were conducted as follows: automated 384-well patch-clamp assays on the Qube® platform (Sophion Biosciences) were used to measure the inhibition of sodium flow through human Nav1.8 and Nav1.5 channels. Whole-cell voltage-clamp recordings were performed in QChips® (Sophion Biosciences) at room temperature. Nav1.8 current measurements on Qube® were obtained as follows: Nav1.8 currents were elicited with a 10 second 1 Hertz (Hz) pulse train from a holding potential of −90 millivolts (mV), delivered to the cells once per minute in the control condition (DMSO only) and after compound addition. The 1 hertz pulse train stimulation consisted often test pulses to 10 millivolt (mV) for 20 milliseconds (ms), each of which was followed by a 980 millisecond repolarization to −67 millivolts. At the end of the 10 second pulse train stimulation, a 5 second hyperpolarization step to −100 millivolt (mV) was used to recover Nav1.8 from fast inactivation. The peak currents elicited by the 1st and 10th test pulses were used to determine IC50 values for resting inhibition and inactivated state inhibition. Nav1.5 current measurements on Qube® were obtained as follows: Nav1.5 currents were elicited with a 20 second 3 Hertz pulse train in the control condition (DMSO only) and after compound addition. The pulse train consisted of sixty 20 millisecond test pulses to 0 millivolt from a holding potential of −80 millivolt (mV). The average peak currents elicited by the last 3 test pulses were used to determine IC50 values for Nav1.5 inhibition.
The following buffers were used for the Qube® recordings: External buffer for Nav1.8 Qube® recording: 150 NaCl, 2 CaCl2, 5 KCl, 1 Mg Cl2, 10 HEPES, 12 Dextrose; External buffer for Qube® Nav1.5 recording: 120 N-Methyl-D-Glucamine, 40 NaCl, 1 KCl, 2.7 CaCl2), 5 HEPES, 0.5 MgCl2; and Internal buffer for Qube® recording: 120 CsF, 30 CsCl, 10 EGTA, 5 HEPES, 5 NaF, 2 MgCl2.
For all Qube® experiments offline analysis was used to determine percent inhibition as a function of drug concentration. IC50 values were determined by fitting to the Hill equation.

Sequence of human Nav1.8 (Q9Y5Y9 whole entry): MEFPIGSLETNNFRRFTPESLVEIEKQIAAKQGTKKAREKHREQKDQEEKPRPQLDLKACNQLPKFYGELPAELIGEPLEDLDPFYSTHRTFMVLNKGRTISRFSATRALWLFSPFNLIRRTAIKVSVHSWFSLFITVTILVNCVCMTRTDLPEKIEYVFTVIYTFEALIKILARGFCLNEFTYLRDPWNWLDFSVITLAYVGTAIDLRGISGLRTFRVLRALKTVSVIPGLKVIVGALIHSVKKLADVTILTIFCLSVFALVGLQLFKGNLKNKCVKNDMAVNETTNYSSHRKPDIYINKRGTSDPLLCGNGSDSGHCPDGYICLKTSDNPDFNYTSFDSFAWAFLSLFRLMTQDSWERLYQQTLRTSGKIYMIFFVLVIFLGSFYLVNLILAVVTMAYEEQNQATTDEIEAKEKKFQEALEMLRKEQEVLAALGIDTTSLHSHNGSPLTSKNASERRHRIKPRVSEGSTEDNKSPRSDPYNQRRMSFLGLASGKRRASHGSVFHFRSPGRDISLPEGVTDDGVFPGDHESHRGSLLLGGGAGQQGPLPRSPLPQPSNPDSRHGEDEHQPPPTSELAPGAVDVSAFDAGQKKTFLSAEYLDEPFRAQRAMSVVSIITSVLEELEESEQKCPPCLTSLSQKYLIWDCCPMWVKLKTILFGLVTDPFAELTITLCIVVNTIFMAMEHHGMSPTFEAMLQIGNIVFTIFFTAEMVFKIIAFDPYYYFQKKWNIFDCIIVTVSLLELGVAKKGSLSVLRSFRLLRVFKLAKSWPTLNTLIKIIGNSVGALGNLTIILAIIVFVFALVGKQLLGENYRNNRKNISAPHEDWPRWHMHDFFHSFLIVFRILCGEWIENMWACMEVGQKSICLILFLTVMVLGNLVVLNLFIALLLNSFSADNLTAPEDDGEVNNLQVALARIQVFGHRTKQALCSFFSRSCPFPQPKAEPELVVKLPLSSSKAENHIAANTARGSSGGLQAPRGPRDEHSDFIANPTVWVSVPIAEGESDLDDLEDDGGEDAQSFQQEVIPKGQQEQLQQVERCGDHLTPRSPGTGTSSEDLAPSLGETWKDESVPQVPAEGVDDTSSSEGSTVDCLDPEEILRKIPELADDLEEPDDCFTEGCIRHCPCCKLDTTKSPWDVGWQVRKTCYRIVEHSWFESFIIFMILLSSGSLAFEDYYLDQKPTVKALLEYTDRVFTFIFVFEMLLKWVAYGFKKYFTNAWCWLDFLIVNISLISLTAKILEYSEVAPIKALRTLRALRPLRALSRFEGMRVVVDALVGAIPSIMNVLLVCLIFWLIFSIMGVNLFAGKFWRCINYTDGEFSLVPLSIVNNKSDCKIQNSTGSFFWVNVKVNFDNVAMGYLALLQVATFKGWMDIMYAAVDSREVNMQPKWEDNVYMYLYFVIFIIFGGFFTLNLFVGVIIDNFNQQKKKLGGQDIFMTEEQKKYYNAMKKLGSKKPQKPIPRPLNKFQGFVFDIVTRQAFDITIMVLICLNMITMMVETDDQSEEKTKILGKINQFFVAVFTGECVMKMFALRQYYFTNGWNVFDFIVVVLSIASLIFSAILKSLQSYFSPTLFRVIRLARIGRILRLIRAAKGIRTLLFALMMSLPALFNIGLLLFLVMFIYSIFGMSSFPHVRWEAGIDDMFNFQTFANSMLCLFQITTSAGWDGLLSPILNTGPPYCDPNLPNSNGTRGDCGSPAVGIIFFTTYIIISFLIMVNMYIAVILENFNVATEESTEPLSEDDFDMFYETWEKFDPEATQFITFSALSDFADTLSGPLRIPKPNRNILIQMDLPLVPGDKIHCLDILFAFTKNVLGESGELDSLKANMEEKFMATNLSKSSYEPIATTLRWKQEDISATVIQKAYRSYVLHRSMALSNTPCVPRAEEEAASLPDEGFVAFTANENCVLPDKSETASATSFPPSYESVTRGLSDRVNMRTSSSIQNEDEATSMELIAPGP

| IC50 [nM] | Structure (SMILES) |
| --- | --- |
| 58 | CC1CN(c2ncc(C(F)(F)F)cc2C(=O)Nc2ccnc(S(N)(=O)=O)c2)CCC(C(F)(F)F)O1 (single isomer, unassigned) [Example 121, 2-((2R,7S or 2S.7R)-2-methyl-7-(trifluoromethyl)-1,4-oxazepan-4-yl)-N-(2-sulfamoylpyridin-4-yl)-5-(trifluoromethyl)nicotinamide] |
| 9.2 | C[C@@H]1CN(c2nc(C3CCC3)c(Cl)cc2C(=O)Nc2ccnc(S(N)(=O)=O)c2)C[C@@H](C(F)(F)F)O1 (single isomer, unassigned) [Example 160, 5-chloro-6-cyclobutyl-2-((2R,6S or 2S,6R)-2-methyl-6-(trifluoromethyl)morpholino)-N-(2-sulfamoylpyridin-4-yl)nicotinamide] |
| 17 | C[C@H]1CN(c2nc(C3CCC3)ccc2C(=O)Nc2ccnc(S(N)(=O)=O)c2)C[C@H](C(F)(F)F)O1 (single isomer, unassigned) [Example 168, 6-cyclobutyl-2-((2S,6R or 2R,6S)-2-methyl-6-(trifluoromethyl)morpholino)-N-(2-sulfamoylpyridin-4-yl)nicotinamide] |
| 6.5 | Cc1nc(N2CCC(F)(F)CC2)c(C(=O)Nc2ccnc(S(N)(=O)=O)c2)cc1C1CCC1 [Example 15, 5-cyclobutyl-2-(4,4-difluoropiperidin-1-yl)-6-methyl-N-(2-sulfamoylpyridin-4-yl)nicotinamide] |
| 12 | Cc1nc(N2CCC(F)(F)CC2)c(C(=O)Nc2ccnc(S(N)(=O)=O)c2)cc1C#CC1CC1 [Example 16, 5-(cyclopropylethynyl)-2-(4,4-difluoropiperidin-1-yl)-6-methyl-N-(2-sulfamoylpyridin-4-yl)nicotinamide] |
| 0.9 | NS(=O)(=O)c1cc(NC(=O)c2ccc(CC3CC3)nc2N2CCCC(F)(F)CC2)ccn1 [Example 18, 6-(cyclopropylmethyl)-2-(4,4-difluoroazepan-1-yl)-N-(2-sulfamoylpyridin-4-yl)nicotinamide] |
| 1.6 | Cc1cc(C(=O)Nc2ccnc(S(N)(=O)=O)c2)c(N2CCCC(F)(F)CC2)nc1C [Example 19, 2-(4,4-difluoroazepan-1-yl)-5,6-dimethyl-N-(2-sulfamoylpyridin-4-yl)nicotinamide] |
| 3 | NS(=O)(=O)c1cc(NC(=O)c2ccc(C3CC3)nc2N2CCCC(F)(F)CC2)ccn1 [Example 22, 6-cyclopropyl-2-(4,4-difluoroazepan-1-yl)-N-(2-sulfamoylpyridin-4-yl)nicotinamide] |
| 2.6 | NS(=O)(=O)c1cc(NC(=O)c2cc(Cl)c(C3CCC3)nc2N2CCCC(F)(F)CC2)ccn1 [Example 23, 5-chloro-6-cyclobutyl-2-(4,4-difluoroazepan-1-yl)-N-(2-sulfamoylpyridin-4-yl)nicotinamide] |
| 1 | NS(=O)(=O)c1cc(NC(=O)c2cc(CC3CC3)cnc2N2CCCC(F)(F)CC2)ccn1 [Example 46, 5-(cyclopropylmethyl)-2-(4,4-difluoroazepan-1-yl)-N-(2-sulfamoylpyridin-4-yl)nicotinamide] |
| 0.8 | Cc1nc(N2C[C@@H](C)C(F)(F)[C@@H](C)C2)c(C(=O)Nc2ccnc(S(N)(=O)=O)c2)cc1Cl [Example 53, 5-chloro-2-[(3S,5R)-4,4-difluoro-3,5-dimethyl-1-piperidyl]-6-methyl-N-(2-sulfamoyl-4-pyridyl)pyridine-3-carboxamide] |
| 5.8 | NS(=O)(=O)c1cc(NC(=O)c2ccc(Cl)nc2N2CCCC(F)(F)CC2)ccn1 [Example 138, 6-chloro-2-(4,4-difluoroazepan-1-yl)-N-(2-sulfamoyl-4-pyridyl)pyridine-3-carboxamide] |
| 22 | C[C@@H]1CN(c2ncc(C(F)(F)F)cc2C(=O)Nc2ccnc(S(C)(=O)=O)c2)C[C@H](C)C1(F)F [Example 147, 2-((3S,5R)-4,4-difluoro-3,5-dimethylpiperidin-1-yl)-N-(2-(methylsulfonyl)pyridin-4-yl)-5-(trifluoromethyl)nicotinamide] |
| 0.3 | Cc1nc(N2CCCC(F)(F)CC2)c(C(=O)Nc2ccnc(S(N)(=O)=O)c2)cc1Cl [Example 172, 5-chloro-2-(4,4-difluoroazepan-1-yl)-6-methyl-N-(2-sulfamoylpyridin-4-yl)nicotinamide] |
| 0.5 | Cc1nc(N2CCCC(F)(F)CC2)c(C(=O)Nc2ccnc(S(N)(=O)=O)c2)cc1C(F)(F)F [Example 184, 2-(4,4-difluoroazepan-1-yl)-6-methyl-N-(2-sulfamoylpyridin-4-yl)-5-(trifluoromethyl)nicotinamide] |

Second part, the compound before the results:

| Structure (SMILES) | IC50 [nM] |
| --- | --- |
| CC[C@@H]1CN(c2ncc(C(F)(F)F)cc2C(=O)Nc2ccnc(S(N)(=O)=O)c2)C[C@@H](C(F)(F)F)O1 (single isomer, unassigned) [Example 133, 2-((2R,6S or 2S,6R)-2-ethyl-6-(trifluoromethyl)morpholino)-N-(2-sulfamoylpyridin-4-yl)-5-(trifluoromethyl)nicotinamide] | 12 |
| CC[C@H]1CN(c2ncc(C(F)(F)F)cc2C(=O)Nc2ccnc(S(N)(=O)=O)c2)C[C@H](C(F)(F)F)O1 (single isomer, unassigned) [Example 134, 2-((2S,6R or 2R,6S)-2-ethyl-6-(trifluoromethyl)morpholino)-N-(2-sulfamoylpyridin-4-yl)-5-(trifluoromethyl)nicotinamide] | 155 |
| C[C@H]1CN(c2nc(C3CCC3)c(Cl)cc2C(=O)Nc2ccnc(S(N)(=O)=O)c2)C[C@H](C(F)(F)F)O1 (single isomer, unassigned) [Example 161, 5-chloro-6-cyclobutyl-2-((2S,6R or 2R,6S)-2-methyl-6-(trifluoromethyl)morpholino)-N-(2-sulfamoylpyridin-4-yl)nicotinamide] | 63 |
| C[C@@H]1CN(c2nc(C3CCC3)ccc2C(=O)Nc2ccnc(S(N)(=O)=O)c2)C[C@@H](C(F)(F)F)O1 (single isomer, unassigned) [Example 167, 6-cyclobutyl-2-((2R,6S or 2S,6R)-2-methyl-6-(trifluoromethyl)morpholino)-N-(2-sulfamoylpyridin-4-yl)nicotinamide] | 52 |
| NS(=O)(=O)c1cc(NC(=O)c2cc(C(F)(F)F)cnc2N2CCCC(F)(F)CC2)ccn1 [Example 13, 2-(4,4-difluoroazepan-1-yl)-N-(2-sulfamoylpyridin-4-yl)-5-(trifluoromethyl)nicotinamide] | 4.1 |
| Cc1ccc(C(=O)Nc2ccnc(S(N)(=O)=O)c2)c(N2CCCC(F)(F)CC2)n1 [Example 17, 2-(4,4-difluoroazepan-1-yl)-6-methyl-N-(2-sulfamoylpyridin-4-yl)nicotinamide] | 3.1 |
| NS(=O)(=O)c1cc(NC(=O)c2cc(Cl)c(C3CC3)nc2N2CCCC(F)(F)CC2)ccn1 [Example 21, 5-chloro-6-cyclopropyl-2-(4,4-difluoroazepan-1-yl)-N-(2-sulfamoylpyridin-4-yl)nicotinamide] | 4.5 |
| O=C(Nc1cnn(S(=O)(=O)C2CC2)c1)c1cc(C(F)(F)F)cnc1N1CCCC(F)(F)CC1 [Example 36, N-[1-(cyclopropylsulfonyl)-1H-pyrazol-4-yl]-2-(4,4-difluoroazepan-1-yl)-5-(trifluoromethyl)pyridine-3-carboxamide] | 147 |
| NS(=O)(=O)c1cc(NC(=O)c2ccc(C(F)(F)F)nc2N2CCCC(F)(F)CC2)ccn1 [Example 132, 2-(4,4-difluoroazepan-1-yl)-N-(2-sulfamoylpyridin-4-yl)-6-(trifluoromethyl)nicotinamide] | 5.3 |
| C[C@@H]1CN(c2ncc(C(F)(F)F)cc2C(=O)Nc2ccnc(C(N)=O)c2)C[C@H](C)C1(F)F [Example 156, 4-(2-((3S,5R)-4,4-difluoro-3,5-dimethylpiperidin-1-yl)-5 (trifluoromethyl)nicotinamido)picolinamide] | 58 |
| C[C@@H]1CN(c2nc(C3CCC3)ccc2C(=O)Nc2ccnc(S(N)(=O)=O)c2)C[C@H](C)C1(F)F [Example 166, 6-cyclobutyl-2-((3S,5R)-4,4-difluoro-3,5-dimethylpiperidin-1-yl)-N-(2-sulfamoylpyridin-4-yl)nicotinamide] | 13 |
| C[C@@H]1CN(c2nc(C3CCC3)c(Cl)cc2C(=O)Nc2ccnc(S(N)(=O)=O)c2)C[C@H](C)C1(F)F [Example 169, 5-chloro-6-cyclobutyl-2-((3S,5R)-4,4-difluoro-3,5-dimethylpiperidin-1-yl)-N-(2-sulfamoylpyridin-4-yl)nicotinamide] | 6.9 |
| NS(=O)(=O)c1cc(NC(=O)c2cc(OC(F)(F)F)cnc2N2CCCC(F)(F)CC2)ccn1 [Example 177, 2-(4,4-difluoroazepan-1-yl)-N-(2-sulfamoylpyridin-4-yl)-5-(trifluoromethoxy)nicotinamide] | 2.8 |

Source: patent US11377438B2, “2-amino-n-heteroaryl-nicotinamides as Nav1.8 inhibitors” (Merck Sharp & Dohme Corp., priority 2018, dated 2022)
